Assay [1] concerns 3T3-L1. As to the kind of experiment: Effect on adipogenesis in mouse 3T3L1 cells assessed as G3PD mRNA expression by RT-PCR method. It counts as functional, cell-based.
Assay [2] relates to 3T3-L1. Nature of the assay: Effect on adipogenesis in mouse 3T3L1 cells assessed as cellular lipid content by Oil red O staining. The format is functional, cell-based.
Assay [3] has as its system C3H 10T1/2. As to the kind of experiment: Induction of lipolysis in mouse C3H10T1/2 assessed as glycerol concentration at 10 uM relative to control. It counts as functional.
For assay [4], the system named is 3T3-L1. As to the kind of experiment: Effect on adipogenesis in mouse 3T3L1 cells assessed as adiponectin mRNA expression by RT-PCR method. The format is functional, cell-based.
Assay [5] addresses cGMP-inhibited 3',5'-cyclic phosphodiesterase 3B (Homo sapiens, UniProt Q13370). Nature of the assay: Inhibition of human recombinant PDE3B.
For assay [6], the system named is C3H 10T1/2. As to the kind of experiment: Induction of lipolysis in mouse C3H10T1/2 assessed as glycerol concentration. The format is functional, cell-based.
Assay [7] has as its system 3T3-L1. As to the kind of experiment: Effect on adipogenesis in mouse 3T3L1 cells assessed as PPARgamma mRNA expression by RT-PCR method. It counts as functional, cell-based.
In a further assay the test system is Adipocyte. As to the kind of experiment: Induction of lipolysis in human Adipocyte assessed as glycerol concentration at 10 uM relative to control. It counts as functional.
The subject of assay [8] is 3T3-L1. As to the kind of experiment: Effect on adipogenesis in mouse 3T3L1 cells assessed as FABP4 mRNA expression by RT-PCR method. The format is functional, cell-based.
The target of assay [9] is cGMP-inhibited 3',5'-cyclic phosphodiesterase 3A (Homo sapiens, UniProt Q14432). Nature of the assay: Inhibition of human recombinant PDE3A.

For orientation: IC50 means the concentration needed to halve the response being measured. One may read the EC50 as the concentration that produces a half-maximal response.

Calls of active or inactive are those of the source. The rule behind the calls is not given here.

cGMP-inhibited 3',5'-cyclic phosphodiesterase 3B, sequence (Q13370 whole entry): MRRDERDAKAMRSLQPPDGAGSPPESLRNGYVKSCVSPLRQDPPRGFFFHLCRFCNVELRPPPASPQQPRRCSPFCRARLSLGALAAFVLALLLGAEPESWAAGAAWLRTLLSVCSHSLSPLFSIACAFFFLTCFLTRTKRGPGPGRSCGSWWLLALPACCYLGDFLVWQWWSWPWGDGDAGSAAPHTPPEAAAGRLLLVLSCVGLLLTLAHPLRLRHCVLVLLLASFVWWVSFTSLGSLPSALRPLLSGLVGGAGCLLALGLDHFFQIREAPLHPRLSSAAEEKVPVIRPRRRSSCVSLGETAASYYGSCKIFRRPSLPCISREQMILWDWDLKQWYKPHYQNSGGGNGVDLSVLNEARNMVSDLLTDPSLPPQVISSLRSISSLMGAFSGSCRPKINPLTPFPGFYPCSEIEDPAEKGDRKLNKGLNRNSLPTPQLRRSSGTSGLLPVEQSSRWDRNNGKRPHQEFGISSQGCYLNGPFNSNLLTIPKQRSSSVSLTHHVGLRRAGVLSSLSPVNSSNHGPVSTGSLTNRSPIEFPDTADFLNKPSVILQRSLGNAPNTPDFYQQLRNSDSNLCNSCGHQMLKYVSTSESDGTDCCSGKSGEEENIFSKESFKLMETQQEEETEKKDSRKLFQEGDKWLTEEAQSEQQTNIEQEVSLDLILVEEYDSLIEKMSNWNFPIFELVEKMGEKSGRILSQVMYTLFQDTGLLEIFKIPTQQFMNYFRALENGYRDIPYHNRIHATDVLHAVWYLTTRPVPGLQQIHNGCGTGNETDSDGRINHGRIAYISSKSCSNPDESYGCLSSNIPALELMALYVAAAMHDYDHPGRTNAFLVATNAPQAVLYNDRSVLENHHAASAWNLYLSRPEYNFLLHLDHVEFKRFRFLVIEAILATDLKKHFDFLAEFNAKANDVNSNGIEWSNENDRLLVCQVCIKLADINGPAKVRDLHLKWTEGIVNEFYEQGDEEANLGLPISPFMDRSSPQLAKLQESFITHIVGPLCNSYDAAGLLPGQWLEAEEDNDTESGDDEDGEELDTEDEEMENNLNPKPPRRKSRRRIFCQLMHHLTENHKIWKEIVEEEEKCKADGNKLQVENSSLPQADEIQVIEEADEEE
cGMP-inhibited 3',5'-cyclic phosphodiesterase 3A, sequence (Q14432 whole entry): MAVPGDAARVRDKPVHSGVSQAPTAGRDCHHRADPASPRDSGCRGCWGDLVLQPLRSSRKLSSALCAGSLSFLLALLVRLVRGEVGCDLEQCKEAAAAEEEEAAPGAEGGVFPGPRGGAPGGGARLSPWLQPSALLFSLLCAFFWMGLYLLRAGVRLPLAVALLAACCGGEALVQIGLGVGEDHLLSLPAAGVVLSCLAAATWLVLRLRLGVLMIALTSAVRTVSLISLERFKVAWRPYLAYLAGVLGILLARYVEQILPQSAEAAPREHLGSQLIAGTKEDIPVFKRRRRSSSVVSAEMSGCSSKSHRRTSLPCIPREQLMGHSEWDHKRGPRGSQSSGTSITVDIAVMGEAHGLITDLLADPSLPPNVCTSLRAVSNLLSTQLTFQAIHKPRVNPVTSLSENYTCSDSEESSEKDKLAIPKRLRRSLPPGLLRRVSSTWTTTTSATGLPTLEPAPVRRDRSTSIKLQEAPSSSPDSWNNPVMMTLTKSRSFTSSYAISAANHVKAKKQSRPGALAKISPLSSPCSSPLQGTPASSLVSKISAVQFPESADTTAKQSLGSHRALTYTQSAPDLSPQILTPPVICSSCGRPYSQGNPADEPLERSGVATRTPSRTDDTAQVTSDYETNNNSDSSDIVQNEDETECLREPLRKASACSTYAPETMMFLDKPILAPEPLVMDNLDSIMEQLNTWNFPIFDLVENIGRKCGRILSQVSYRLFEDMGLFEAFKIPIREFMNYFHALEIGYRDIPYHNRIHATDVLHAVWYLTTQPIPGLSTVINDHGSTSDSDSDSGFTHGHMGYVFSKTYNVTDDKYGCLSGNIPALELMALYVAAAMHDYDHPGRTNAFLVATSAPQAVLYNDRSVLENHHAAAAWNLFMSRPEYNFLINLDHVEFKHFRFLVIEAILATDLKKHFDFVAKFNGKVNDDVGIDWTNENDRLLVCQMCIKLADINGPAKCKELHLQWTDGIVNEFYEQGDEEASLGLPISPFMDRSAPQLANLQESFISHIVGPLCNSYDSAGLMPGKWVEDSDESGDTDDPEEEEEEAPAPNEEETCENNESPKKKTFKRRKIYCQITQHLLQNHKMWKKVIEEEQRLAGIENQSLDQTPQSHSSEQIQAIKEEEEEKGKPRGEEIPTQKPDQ

As to `C/C(=N\NS(=O)(=O)c1ccc(C)cc1)c1ccc2c(c1)C(C)(C)C(=O)N2`, the outcome in the assay on 3T3-L1 [1], with 3T3-L1 [2], in the assay on 3T3-L1 [4], in the assay on 3T3-L1 [7] and in the assay on 3T3-L1 [8] was Active. Further, the Activity was 191.7% with C3H 10T1/2 [3] and 171.5% in the assay with Adipocyte. The values for the IC50 in assay [5] and in assay [9] were 0.0884 µM and 0.0148 µM, respectively. The EC50 in the assay with C3H 10T1/2 [6] stood at 0.0089 µM.
Consider `Cc1ccc(S(=O)(=O)N/N=C2\CC(C)(C)Oc3ccc([N+](=O)[O-])cc32)cc1`, for which the Activity in the assay on C3H 10T1/2 [3] is on record as 168.4%; with Adipocyte it was 116.67%. In addition, the EC50 in the assay on C3H 10T1/2 [6] is 0.0052 µM.
For `CC(C)NCC(O)c1ccc(O)c(O)c1` (stereo not given) [ISOPROTERENOL] the same measures were 291.3%, 214.39% and 0.019 µM.
`CN(C(=O)CCCOc1ccc2[nH]c(=O)ccc2c1)C1CCCCC1` [CILOSTAMIDE]: the result with 3T3-L1 [1], in the assay with 3T3-L1 [2], with 3T3-L1 [4], in the assay with 3T3-L1 [7] and with 3T3-L1 [8] was Active. Also, the Activity is recorded as 247.36% in the assay with C3H 10T1/2 [3] and 192.4% with Adipocyte. The concentration for half-maximal inhibition (IC50) in [5] amounted to 0.0691 µM. Further, the EC50 in the assay on C3H 10T1/2 [6] was 0.0091 µM.
For `CC1=NN(S(=O)(=O)c2ccc(C)cc2)C(O)(C(F)(F)F)C1` (stereo not given), the Activity in the assay with C3H 10T1/2 [3] was 171.3%; in the assay with Adipocyte, 116.67%. In addition, the EC50 in the assay with C3H 10T1/2 [6] is 0.0068 µM.
For `CCCC(NS(=O)(=O)c1ccc2c(c1)CCCC(=O)N2)c1cccs1` (stereo not given), the Activity was determined as 131.9% in the assay with C3H 10T1/2 [3] and 130.2% with Adipocyte.

The values above are taken from ChEMBL document CHEMBL1681753, “Discovery of new inhibitor for PDE3 by virtual screening” (Bioorg Med Chem Lett, 2011).
